From ChEMBL document CHEMBL1201862, “PubChem BioAssay data set” (2004)
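Five compound concentrations were applied to cells in 96-well plates for 48 hours; endpoints were derived by simple linear interpolation of the resulting dose-response curve. Here, GI50 denotes the concentration required for 50% inhibition of growth.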 The source made the active and inactive calls. No stated cut-off is given here; in the data, active = GI50 up to about 1.1 µM and inactive = higher.

Legend:
Experiment in all cases: DTP human tumour cell line panel, 48 h
[1] = tested on: OVCAR-5
[2] = tested on: OVCAR-8
[3] = tested on: A549
[4] = tested on: NCI-H460
[5] = tested on: SK-MEL-5
[6] = tested on: RXF 393
[7] = tested on: SNB-78
[8] = tested on: KM-20L2
[9] = tested on: M14
[10] = tested on: KM12
[11] = tested on: 786-0
[12] = tested on: UACC-257
[13] = tested on: NCI-H23
[14] = tested on: UACC-62
[15] = tested on: SW-620
[16] = tested on: HCT-116
[17] = tested on: TK-10
[18] = tested on: HCT-15
[19] = tested on: MOLT-4
[20] = tested on: SN12C
[21] = tested on: SF-539
[22] = tested on: K562
[23] = tested on: ACHN
[24] = tested on: DLD-1
[25] = tested on: SK-MEL-28
[26] = tested on: DMS-114
[27] = tested on: IGROV-1
[28] = tested on: SK-MEL-2
[29] = tested on: HOP-18
[30] = tested on: UO-31
[31] = tested on: CAKI-1
[32] = tested on: CCRF-CEM
[33] = tested on: HCC 2998
[34] = tested on: OVCAR-4
[35] = tested on: HT-29
[36] = tested on: HL-60
[37] = tested on: XF498
[38] = tested on: LXFL 529
[39] = tested on: DMS-273
[40] = tested on: HOP-92
[41] = tested on: HOP-62
[42] = tested on: SF-268
[43] = tested on: M19-MEL
[44] = tested on: SF-295
[45] = tested on: LOX IMVI
[46] = tested on: SNB-19
[47] = tested on: OVCAR-3
[48] = tested on: EKVX
[49] = tested on: NCI-H226
[50] = tested on: Malme-3M
[51] = tested on: RPMI-8226
[52] = tested on: SR
[53] = tested on: SNB-75
[54] = tested on: A498
[55] = tested on: NCI-H522
[56] = tested on: U-251
[57] = tested on: SK-OV-3
[58] = tested on: COLO 205
[59] = tested on: MCF7
[60] = tested on: NCI/ADR-RES

## CC1=C(C(=O)Nc2ccccc2C)C(c2ccccc2O)C(C(=O)Nc2ccccc2C)=C(C)N1
[1]
  GI50: 30.8 µM (inactive)
[2]
  GI50: 19.8 µM (inactive)
[3]
  GI50: 33.7 µM (inactive)
[4]
  GI50: 17.1 µM (inactive)
[5]
  GI50: 20 µM (inactive)
[6]
  GI50: 25.6 µM (inactive)
[7]
  GI50: 29.5 µM (inactive)
[8]
  GI50: 20.2 µM (inactive)
[9]
  GI50: 18.2 µM (inactive)
[10]
  GI50: 14.7 µM (inactive)
[11]
  GI50: 15.3 µM (inactive)
[12]
  GI50: 22 µM (inactive)
[13]
  GI50: 34.2 µM (inactive)
[14]
  GI50: 15.8 µM (inactive)
[15]
  GI50: 33 µM (inactive)
[16]
  GI50: 18.4 µM (inactive)
[17]
  GI50: 29.2 µM (inactive)
[18]
  GI50: 16 µM
[19]
  GI50: 27.5 µM (inactive)
[20]
  GI50: 19.5 µM (inactive)
[21]
  GI50: 17.3 µM (inactive)
[22]
  GI50: 25.2 µM (inactive)
[23]
  GI50: 22.3 µM (inactive)
[24]
  GI50: 16.8 µM (inactive)
[25]
  GI50: 28 µM (inactive)
[26]
  GI50: 22 µM (inactive)
[27]
  GI50: 17.6 µM (inactive)
[28]
  GI50: 17.1 µM (inactive)
[29]
  GI50: 17.9 µM (inactive)
[30]
  GI50: 16.8 µM (inactive)
[31]
  GI50: 23.4 µM (inactive)
[32]
  GI50: 24.6 µM (inactive)
[33]
  GI50: 15.9 µM (inactive)
[34]
  GI50: 22.2 µM (inactive)
[35]
  GI50: 25.7 µM (inactive)
[36]
  GI50: 21 µM (inactive)
[37]
  GI50: 22.3 µM (inactive)
[38]
  GI50: 20.1 µM (inactive)
[39]
  GI50: 17.7 µM (inactive)
[40]
  GI50: 51.4 µM (inactive)
[41]
  GI50: 21.1 µM (inactive)
[42]
  GI50: 33.7 µM (inactive)
[43]
  GI50: 21 µM (inactive)
[44]
  GI50: 18.6 µM (inactive)
[45]
  GI50: 18.6 µM (inactive)
[46]
  GI50: 23.4 µM (inactive)
[47]
  GI50: 17.3 µM (inactive)
[48]
  GI50: 30.8 µM (inactive)
[49]
  GI50: 23.8 µM (inactive)
[50]
  GI50: 26.7 µM (inactive)
[51]
  GI50: 20.3 µM (inactive)
[52]
  GI50: 12.3 µM (inactive)
[53]
  GI50: 24.5 µM (inactive)
[54]
  GI50: 21.4 µM (inactive)

## CC#CC(OCC)(OCC)OCC
[1]
  GI50: > 100 µM (inactive)
[2]
  GI50: > 100 µM (inactive)
[3]
  GI50: > 100 µM (inactive)
[4]
  GI50: 81.8 µM (inactive)
[5]
  GI50: > 100 µM (inactive)
[6]
  GI50: > 100 µM (inactive)
[7]
  GI50: > 100 µM (inactive)
[8]
  GI50: > 100 µM (inactive)
[9]
  GI50: > 100 µM (inactive)
[10]
  GI50: > 100 µM (inactive)
[11]
  GI50: > 100 µM (inactive)
[12]
  GI50: > 100 µM (inactive)
[13]
  GI50: > 100 µM (inactive)
[14]
  GI50: > 100 µM (inactive)
[55]
  GI50: 53.2 µM (inactive)
[16]
  GI50: > 100 µM (inactive)
[17]
  GI50: > 100 µM (inactive)
[18]
  GI50: 39.1 µM
[19]
  GI50: > 100 µM (inactive)
[20]
  GI50: > 100 µM (inactive)
[21]
  GI50: > 100 µM (inactive)
[56]
  GI50: > 100 µM (inactive)
[22]
  GI50: > 100 µM (inactive)
[23]
  GI50: > 100 µM (inactive)
[24]
  GI50: > 100 µM (inactive)
[25]
  GI50: > 100 µM (inactive)
[26]
  GI50: 25.8 µM (inactive)
[27]
  GI50: > 100 µM (inactive)
[28]
  GI50: > 100 µM (inactive)
[29]
  GI50: > 100 µM (inactive)
[30]
  GI50: > 100 µM (inactive)
[31]
  GI50: > 100 µM (inactive)
[32]
  GI50: > 100 µM (inactive)
[57]
  GI50: > 100 µM (inactive)
[58]
  GI50: 57.1 µM (inactive)
[33]
  GI50: > 100 µM (inactive)
[34]
  GI50: > 100 µM (inactive)
[35]
  GI50: > 100 µM (inactive)
[36]
  GI50: > 100 µM (inactive)
[37]
  GI50: > 100 µM (inactive)
[38]
  GI50: > 100 µM (inactive)
[39]
  GI50: 20.6 µM (inactive)
[40]
  GI50: > 100 µM (inactive)
[41]
  GI50: > 100 µM (inactive)
[42]
  GI50: > 100 µM (inactive)
[43]
  GI50: > 100 µM (inactive)
[44]
  GI50: > 100 µM (inactive)
[45]
  GI50: 18.9 µM (inactive)
[46]
  GI50: > 100 µM (inactive)
[47]
  GI50: > 100 µM (inactive)
[48]
  GI50: > 100 µM (inactive)
[49]
  GI50: > 100 µM (inactive)
[50]
  GI50: > 100 µM (inactive)
[51]
  GI50: > 100 µM (inactive)
[52]
  GI50: > 100 µM (inactive)
[53]
  GI50: > 100 µM (inactive)
[54]
  GI50: > 100 µM (inactive)

## C[N+](C)(C)CCOC(=O)/C=C/c1c[nH]cn1
[1]
  GI50: > 356 µM (inactive)
[2]
  GI50: > 500 µM (inactive)
[3]
  GI50: > 500 µM (inactive)
[4]
  GI50: > 500 µM (inactive)
[5]
  GI50: > 500 µM (inactive)
[6]
  GI50: > 500 µM (inactive)
[7]
  GI50: > 500 µM (inactive)
[59]
  GI50: > 500 µM (inactive)
[8]
  GI50: > 500 µM (inactive)
[10]
  GI50: > 500 µM (inactive)
[12]
  GI50: > 500 µM (inactive)
[13]
  GI50: > 500 µM (inactive)
[14]
  GI50: > 500 µM (inactive)
[55]
  GI50: > 500 µM (inactive)
[15]
  GI50: > 500 µM (inactive)
[16]
  GI50: > 500 µM (inactive)
[18]
  GI50: > 500 µM
[19]
  GI50: > 316 µM (inactive)
[20]
  GI50: > 500 µM (inactive)
[21]
  GI50: > 500 µM (inactive)
[56]
  GI50: > 500 µM (inactive)
[22]
  GI50: > 500 µM (inactive)
[24]
  GI50: > 500 µM (inactive)
[25]
  GI50: > 500 µM (inactive)
[26]
  GI50: > 500 µM (inactive)
[27]
  GI50: > 500 µM (inactive)
[28]
  GI50: > 500 µM (inactive)
[29]
  GI50: > 500 µM (inactive)
[30]
  GI50: > 500 µM (inactive)
[31]
  GI50: > 500 µM (inactive)
[32]
  GI50: > 500 µM (inactive)
[57]
  GI50: > 500 µM (inactive)
[58]
  GI50: > 500 µM (inactive)
[33]
  GI50: > 500 µM (inactive)
[34]
  GI50: > 500 µM (inactive)
[35]
  GI50: > 500 µM (inactive)
[36]
  GI50: > 500 µM (inactive)
[37]
  GI50: > 500 µM (inactive)
[39]
  GI50: > 500 µM (inactive)
[40]
  GI50: 492 µM (inactive)
[41]
  GI50: > 500 µM (inactive)
[42]
  GI50: > 500 µM (inactive)
[43]
  GI50: > 500 µM (inactive)
[44]
  GI50: > 500 µM (inactive)
[45]
  GI50: > 500 µM (inactive)
[46]
  GI50: > 500 µM (inactive)
[47]
  GI50: > 500 µM (inactive)
[60]
  GI50: > 500 µM (inactive)
[48]
  GI50: > 500 µM (inactive)
[49]
  GI50: > 500 µM (inactive)
[50]
  GI50: > 500 µM (inactive)
[51]
  GI50: > 500 µM (inactive)
[53]
  GI50: > 500 µM (inactive)
[54]
  GI50: > 500 µM (inactive)
